Measurements from patent US20060194805A1, “Capsaicin receptor agonists” (Neurogen Corporation, priority 2003, published 2006).

molecular target: T1, human capsaicin receptor (Homo sapiens, UniProt Q8NER1); assay: Calcium mobilization assay (determination of agonist activity), Example 7; assay type: cell-based; details: HEK293 cells expressing human capsaicin receptor, FLUO-3 calcium fluorescence; read-out: EC50, capsaicin receptor agonist activity as described in Example 7
T1 construct: transfected with the pBK-CMV expression construct encoding the full length human capsaicin receptor; expressed in transfected cells
T1 sequence (Q8NER1 whole entry): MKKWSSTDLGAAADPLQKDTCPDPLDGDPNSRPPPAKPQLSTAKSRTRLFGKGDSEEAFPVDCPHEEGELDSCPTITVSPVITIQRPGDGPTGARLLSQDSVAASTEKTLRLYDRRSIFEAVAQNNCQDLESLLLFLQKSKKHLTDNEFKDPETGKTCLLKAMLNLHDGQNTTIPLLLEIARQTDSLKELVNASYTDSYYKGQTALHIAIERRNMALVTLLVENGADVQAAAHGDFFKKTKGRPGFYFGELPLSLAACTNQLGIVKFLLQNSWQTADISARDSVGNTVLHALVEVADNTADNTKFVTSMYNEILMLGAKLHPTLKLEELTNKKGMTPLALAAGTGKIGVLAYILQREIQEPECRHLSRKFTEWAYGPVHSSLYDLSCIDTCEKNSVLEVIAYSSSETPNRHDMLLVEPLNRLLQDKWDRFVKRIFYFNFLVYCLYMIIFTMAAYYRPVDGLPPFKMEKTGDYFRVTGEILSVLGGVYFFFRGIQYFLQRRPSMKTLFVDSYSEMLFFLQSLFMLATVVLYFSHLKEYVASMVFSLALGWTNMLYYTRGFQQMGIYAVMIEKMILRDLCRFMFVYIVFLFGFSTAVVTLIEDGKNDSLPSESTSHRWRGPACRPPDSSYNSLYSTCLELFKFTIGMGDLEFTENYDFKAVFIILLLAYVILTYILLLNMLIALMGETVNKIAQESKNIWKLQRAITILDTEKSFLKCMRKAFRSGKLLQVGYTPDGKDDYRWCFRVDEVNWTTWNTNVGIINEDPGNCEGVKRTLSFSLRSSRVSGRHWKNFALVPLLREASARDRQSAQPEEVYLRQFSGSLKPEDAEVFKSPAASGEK
Text: A cDNA encoding full length human capsaicin receptor (SEQ ID NO:1, 2 or 3 of U.S. Pat. No. 6,482,611) was subcloned in the plasmid pBK-CMV (Stratagene, La Jolla, Calif.) for recombinant expression in mammalian cells.
Human embryonic kidney (HEK293) cells were transfected with the pBK-CMV expression construct encoding the full length human capsaicin receptor using standard methods. […] Independent clones were isolated from this pool by limiting dilution to obtain clonal stable cell lines for use in subsequent experiments.
The culture medium is emptied from the 96 well plates and FLUO-3 AM calcium sensitive dye (Molecular Probes, Eugene, Oreg.) is added to each well (dye solution: 1 mg FLUO-3 AM, 440 μL DMSO and 440 μl 20% pluronic acid in DMSO, diluted 1:250 in Krebs-Ringer HEPES (KRH) buffer (25 mM HEPES, 5 mM KCl, 0.96 mM NaH2PO4, 1 mM MgSO4, 2 mM CaCl2, 5 mM glucose, 1 mM probenecid, pH 7.4), 50 μl diluted solution per well). Plates are covered with aluminum foil and incubated at 37° C. for 1-2 hours in an environment containing 5% CO2.
To measure the ability of a test compound to agonize or antagonize a calcium mobilization response in cells expressing capsaicin receptors to capsaicin or other vanilloid agonist, the EC50 of the agonist capsaicin is first determined. An additional 20 μl of KRH buffer and 1 μl DMSO is added to each well of cells, prepared as described above. 100 μl capsaicin in KRH buffer is automatically transferred by the FLIPR instrument to each well. Capsaicin-induced calcium mobilization is monitored using either FLUOROSKAN ASCENT (Labsystems; Franklin, Mass.) or FLIPR (fluorometric imaging plate reader system; Molecular Devices, Sunnyvale, Calif.) instruments. Data obtained between 30 and 60 seconds after agonist application are used to generate an 8-point concentration response curve, with final capsaicin concentrations of 1 nM to 3 μM. […] software (Synergy Software, Reading, Pa.) is used to fit the data to the equation: y=a*(1/(1+(b/x)c)) to determine the 50% excitatory concentration (EC50) for the response. In this equation, y is the maximum fluorescence signal, x is the concentration of the agonist or antagonist (in this case, capsaicin), a is the Emax, b corresponds to the EC50 value and c is the Hill coefficient. Determination of Agonist Activity
Test compounds are dissolved in DMSO, diluted in KRH buffer, and immediately added to cells prepared as described above. […] The final concentration of test compounds in the assay wells is between 0.1 nM and 5 μM.
The ability of a test compound to act as an agonist of the capsaicin receptor is determined by measuring the fluorescence response of cells expressing capsaicin receptors elicited by the compound as function of compound concentration.

Row | SMILES | EC50
1 | FC(F)(F)c1ccc(Nc2ncnc3cc(Br)ccc23)nc1 [Compound 1, (7-bromo-quinazolin-4-yl)-(5-trifluoromethyl-pyridin-2-yl)-amine] | < 1000 nM
2 | CC(C)(C)c1cc(Nc2ncnc3cc(Br)cnc23)no1 [Compound 2] | < 1000 nM
3 | C[C@@H]1CN(Cc2nc(Nc3ccc(C(C)(C)C)cc3)c3ccc(C(F)(F)F)cc3n2)C[C@H](C)O1 [Compound 3, (4-t-butyl-phenyl)-[2-(cis-2,6-dimethyl-morpholin-4-ylmethyl)-7-trifluoromethyl-quinazolin-4-yl)-amine] | < 1000 nM

Further lines, results first:

Row | EC50 | SMILES
4 | < 1000 nM | CCCn1c(CN(Cc2ccc(Cl)cc2Cl)Cc2c(OCC)ccc3ccccc23)nc2cc(F)ccc21 [Compound 55]
5 | < 1000 nM | O=C(NCc1ccccc1)c1cc(-c2cccc(Cl)c2)nc2ccncc12 [Compound 65, 2-(3-chloro-phenyl)-[1, 6]-naphthyridine-4-carboxylic acid benzylamide]

same assay, conditions: capsaicin positive control, calcium mobilization; read-out: approximate EC90 concentration

Row | EC90 | SMILES
6 | ~100 nM | COc1cc(CNC(=O)CCCC/C=C/C(C)C)ccc1O [capsaicin]
